Measured values reported in patent US20160089365A1, “IMMUNOSTIMULATORY COMPOUND” (Eisai R&D Management Co., Ltd., priority 2014, published 2016).
“Also recorded” adds a separate entry of the source.

Legend:
[1] = system: BNL 1MEA.7R.1 murine hepatocellular carcinoma xenografts; assay: Antitumor effects in BNL 1MEA.7R.1 murine hepatocellular carcinoma xenografts in athymic mice; assay type: in vivo, Mouse (CAnN.Cg-Foxn1nu/CrlCrlj; details: oral 3 and 10 mg/kg once daily for 7 days, Day 8
Protocol: The BNL 1MEA.7R. 1 murine hepatocellular carcinoma cells were cultured in Dulbecco's minimal essential medium (DMEM) supplemented with 10% heat-inactivated (56° C., 30 minutes) fetal bovine serum (FBS) and 100 U/mL penicillin, 100 μg/mL streptomycin, 1-glutamine (2 mmol/L) in humidified atmosphere of 5% CO2 at 37° C. This tumor cell line was developed from BALB/c mouse. The cells were washed with phosphate buffered saline (PBS), harvested with 0.25% trypsin-EDTA, and suspended with 50% BD Matrigel™ (BD biosciences) in the Hank's balanced salt solution (HBSS) at a density of 1×10^8 cells/mL. A 0.1 mL aliquot of the cell suspension was inoculated subcutaneously into the right flank of each mouse. Fifty days after the inoculation (Day 1), 15 out of 25 athymic mice and 25 out of 33 wild-type mice were selected based on their tumor volumes, shapes of tumors, physical condition, and body weights. […]
Lenvatinib mesilate (3 and 10 mg/kg) or vehicle was orally administered at 0.1 mL/10 g body weight, once daily for 7 days (Day 1-7). The tumor volume and body weight of mice were measured on Day 1, 3, 6, and 8. […]
(§1) Data are expressed as mean±SD. The differences in relative tumor volume on Day 8 between vehicle- and lenvatinib mesilate-treated groups (3 and 10 mg/kg) in athymic and wild-type mice were analyzed by one-way analysis of variance followed by the Dunnett multiple comparison test, respectively. […]

[2] = Body weight of mice during the xenograft study; assay type: in vivo, Mouse; details: athymic and wild-type mice, oral 3 and 10 mg/kg once daily for 7 days, during the study period
Protocol: (§2) Lenvatinib mesilate (3 and 10 mg/kg) or vehicle was orally administered at 0.1 mL/10 g body weight, once daily for 7 days (Day 1-7). The tumor volume and body weight of mice were measured on Day 1, 3, 6, and 8.

[3] = system: tumor-associated macrophage (TAM) population in tumor; assay: Immune population analysis in BNL 1MEA.7R.1 xenograft tumor of wild-type mice by flow cytometry; assay type: in vivo, Mouse (BALB/cAnNCrlCrlj; details: oral 10 mg/kg once a day for 7 days, Day 8
Protocol: Half-cut tumor samples collected from BNL 1MEA.7R.1 xenograft model in wild-type mice 1 day after the administration of vehicle or lenvatinib mesilate (10 mg/kg) in Referential Ex. 1 (Group 4, 6, 7, and 8) were minced with a razor on ice. The tumor fragments were digested with collagenase (1900 U/mL) and deoxyribonuclease I (160 KIU/mL) in HBSS for 1 hour at 37° C. with magnetic stirring in flasks. After filtering through cell strainer (pore size 70 μm), harvested cells were washed 3 times with flow cytometry buffer (PBS supplemented with 0.5% bovine serum albumin and 2 mmol/L EDTA). Cells were resuspended with 200 μL of FCM buffer containing 5 μg/mL Mouse BD Fc Block™ (BD biosciences), and incubated at 4° C. for 10 minutes. Antibody cocktail (dilution; 1:2 in FCM buffer) 1 and 2 were prepared as below.
One hundred microliters of cell suspension was mixed with 100 μL of the antibody cocktail 1 or 2 in each well of two 96-well cell culture round bottom plates (Corning Incorporated), and incubated at 4° C. for 30 minutes in a light protected. […] Data were analyzed by FCM analysis software FlowJo 7.6.5 (Tree Star, Inc.).
Data are expressed as mean±SD. The differences in percentage of target cells in CD45^+ cells between vehicle- and lenvatinib mesilate-treated groups were analyzed by the unpaired t test.

[4] = system: BNL 1MEA.7R.1 murine hepatocellular carcinoma xenografts; assay: Antitumor effects in BNL 1MEA.7R.1 murine hepatocellular carcinoma xenografts in wild-type mice; assay type: in vivo, Mouse (BALB/cAnNCrlCrlj; details: Day 8
Protocol: The BNL 1MEA.7R. 1 murine hepatocellular carcinoma cells were cultured in Dulbecco's minimal essential medium (DMEM) supplemented with 10% heat-inactivated (56° C., 30 minutes) fetal bovine serum (FBS) and 100 U/mL penicillin, 100 μg/mL streptomycin, 1-glutamine (2 mmol/L) in humidified atmosphere of 5% CO2 at 37° C. This tumor cell line was developed from BALB/c mouse. The cells were washed with phosphate buffered saline (PBS), harvested with 0.25% trypsin-EDTA, and suspended with 50% BD Matrigel™ (BD biosciences) in the Hank's balanced salt solution (HBSS) at a density of 1×10^8 cells/mL. A 0.1 mL aliquot of the cell suspension was inoculated subcutaneously into the right flank of each mouse. Fifty days after the inoculation (Day 1), 15 out of 25 athymic mice and 25 out of 33 wild-type mice were selected based on their tumor volumes, shapes of tumors, physical condition, and body weights. Then the selected athymic and wild-type mice were randomly divided into 3 groups (Group 1-3 in the following table “Treatment Groups”) and 5 groups (Group 4-8), respectively. Animals assigned to Group 4, 6, 7, and 8 were used in Ex. 1 and 2. The mean tumor volumes of athymic and wild-type mice assigned to 8 groups were 169.5 and 157.5 mm^3, respectively, on Day 1.
as §2
Tumor volume (mm^3)=length (mm)×width^2 (mm^2)×1/2
as §1
To compare antitumor activities of lenvatinib mesilate between different strains, differences in % TGI of lenvatinib mesilate between athymic and wild-type mice at each dose were analyzed by the unpaired t test.

[5] = system: IFN-γ+ cells in CD8+ T cells of draining lymph nodes; assay: IFN-γ staining analysis of CD8+ T cells derived from draining lymph nodes in BNL 1MEA.7R.1 xenografts in wild-type mice; assay type: in vivo, Mouse (BALB/cAnNCrlCrlj; details: oral 10 mg/kg once a day for 7 days, Day 8
Protocol: Draining lymph nodes derived from BNL 1MEA.7R. 1 xenograft model in wild-type mice 1 day after once-daily oral administration of vehicle or lenvatinib mesilate (10 mg/kg) for 7 days in Referential Ex. 1 were isolated and mashed by a 5-mL syringe. The cell number in suspension was calculated and adjusted to 2.0×10^6 cells/mL with RPMI1640 containing 10% FBS, 100 U/mL penicillin, and 100 μg/mL streptomycin. One hundred microliters per well of the resultant cell suspension were plated in a 96-well cell culture cluster round bottom plate (Corning Incorporated) and cultured with BD Goldi-Stop™ (final concentration [conc.] 4 μL/6 mL) for 5 hours in 5% CO2 at 37° C. […] After washing with 200 μL of BD Perm/Wash buffer 2 times, the resultant cells were resuspended with 200 μL of BD Perm/Wash buffer, and analyzed to detect percentage of IFN-γ-positive cells in CD3- and CD8-positive cells by FACSAriaII SORP cell sorter (Becton, Dickinson and company) with BD FACSDiva 6.1.3 software (Becton, Dickinson and company). […]
Data are expressed as mean±SD. The differences in percentage of IFN-γ-positive cells in CD8^+ T cells between vehicle- and lenvatinib mesilate-treated groups were analyzed by the unpaired t test

**Q.** For `COc1cc2nccc(Oc3ccc(NC(=O)NC4CC4)c(Cl)c3)c2cc1C(N)=O` [lenvatinib mesilate, 4-(3-chloro-4-(cyclopropylaminocarbonyl)aminophenoxy)-7-methoxy-6-quinolinecarboxamide], which “tumor volume compared to vehicle” value [1] is on record?
**A.** no significant difference; also recorded: only tumor growth delay

**Q.** And the body weight loss [2]?
**A.** Any severe body weight loss was not observed

**Q.** And the “percentage of TAM population (CD45+CD11b+Ly6G-F4/80+Ly6Clow) in total CD45+ cells compared to vehicle” value [3]?
**A.** significant reduction

**Q.** And the “percentage of immature TAM (CD45+CD11b+Ly6G-F4/80-Ly6Chigh) in total CD45+ cells compared to vehicle” value [3]?
**A.** increased

**Q.** And the “% TGI in wild-type mice compared to athymic mice at each dose” value ([4]; oral 3 and 10 mg/kg once daily for 7 days)?
**A.** significantly larger

**Q.** And the “tumor shrinkage in individual animals” value ([4]; wild-type mice, both treatment groups (3 and 10 mg/kg))?
**A.** tumors from all animals shrank

**Q.** What about the “tumor volume compared to vehicle” value ([4]; wild-type mice, oral 3 and 10 mg/kg once daily for 7 days) of the same molecule?
**A.** significant reduction in tumor volume

**Q.** What about the “percentage of IFN-γ+ cells in CD8+ T cells in dLN compared to vehicle” value [5] of the same molecule?
**A.** significantly increased
